The results in this text go back to patent publication US20230212653A1, “METHODS AND MATERIALS FOR ASSESSING HOMOLOGOUS RECOMBINATION DEFICIENCY IN BREAST CANCER SUBTYPES” (Myriad Genetics, Inc., priority 2021, published 2023).

The test system of the test is triple negative breast cancer (TNBC). Kind of test: Pathologic response of a neoadjuvant TNBC cohort treated with cisplatin (Example 6). It is filed as in vivo, human. The following applies: for PR = yes, % response / pCR = yes, % response: secondary analysis; for pCR = yes, % response: n=51. As for the experimental part: Analysis of a neoadjuvant TNBC cohort treated with cisplatin was examined relative to the relationship between all three HRD scores and response. All p values were from logistic regression models with response to cisplatin as the dependent variable.
HR Deficiency status was determined for 62 of the 70 samples (70 individual patients) received from a cisplatin cohort (8 had insufficient tumors for analysis). Of these, 31 (50%) were HR deficient, 22 (35%) were non-HR deficient, and 9 (15%) were undetermined. FIG. 15 provides a histogram showing the distribution of HRD scores in the cohort. Scores ≥42 were considered to have high HRD (see also, Example 5). […] Pathologic complete response (pCR), which is associated with long-term survival, was defined as a residual cancer burden (RBC) of 0 and observed in 11/59 (19%) samples. […] These overall response rates correlated with monotherapy expectations.
Statistical analyses followed a predefined Statistical Analysis Plan (SAP), which included primary, secondary, and BRCA wild-type subset analyses.

On to `N.N.[Cl][Pt][Cl]` [cisplatin], for which, for the setting “BRCA Mutant”, the “PR = yes, % response” value is 5 (55.6%) and the “pCR = yes, % response” value was 3 (33.3%). Moreover, under “BRCA Non-mutant”, the “PR = yes, % response” value is given as 13 (31.0%) and the “pCR = yes, % response” value was 5 (11.9%). For the same molecule, where the note is “whole cisplatin cohort, 11/59 samples, pCR = residual cancer burden 0”, the “Pathologic complete response (pCR) rate” value was found to be 19%. Moreover, the “Pathologic response (PR) rate” value (whole cisplatin cohort, 22/59 samples, PR = residual cancer burden 0 or 1) worked out at 37%.
